Experimental data: US20210261570A1, “ANTIBIOTIC RESISTANCE BREAKERS” (KING'S COLLEGE LONDON, priority 2017, published 2021)
Converted amounts (≈) assume the structure as drawn. “And” between values parts separate entries of the source, which are not always exact repeats. Identical values can stand only once. Like-named read-outs stand apart in the source and are kept apart here.

Columns and labels:
[1] = test system: Staphylococcus aureus ATCC29213; experiment: Murine model of thigh infection (neutropenic ICR mice); conditions: for decrease of thigh bacterial burden compared to vehicle group: 8 h and 14 h post infection
From the text: 40 Male mice used in these study were supplied by Charles River UK and were specific pathogen free. The strain of mouse used was Hsd:ICR (CD-1®), which is a well characterized outbred strain. Mice were 11-15 g on receipt at Evotec's facility and were allowed to acclimatize for minimum of 7 days prior to infection. Mice were approximately 28 g at the start of the study. Mice were housed in sterile individual ventilated cages exposing animals at all times to HEPA filtered sterile air. Mice had free access to food and water (sterile) and had sterile aspen chip bedding. The room temperature was 22° C.±1° C., with a relative humidity of 50-60% and maximum background noise of 56 dB. Mice were exposed to 12 hour light/dark cycles with dawn/dusk phases.
All mice were rendered neutropenic by immunosuppression with cyclophosphamide at 150 mg/kg 4 days before infection and then 100 mg/kg 1 day before infection administered by intraperitoneal injection. The immunosuppression regime leads to neutropenia starting 24 hours post administration of the first injection, which continues throughout the study. Mice were infected approximately 24 hours after the second dose of immunosuppressive agent.
Staphylococcus aureus ATCC29213 was used for the study.
Whilst still under anaesthesia mice were administered a single dose of buprenorphine (0.03 mg/kg) subcutaneously for pain relief.
Test articles and comparator were prepared in stock solutions at 10× concentration as described in Table 20. The stock solutions were prepared in aliquots (1 aliquot per time of dosing) and frozen at −20° C. The solutions were thawed and then diluted in water just before dosing to obtain the appropriate concentration of 5 mg/mL or 2 mg/mL for oral administration at 10 mL/kg of the dose of 50 mg/kg or 20 mg/kg respectively (Table 20). 10% DMSO in water was used as the vehicle
After sacrifice of animal, both posterior thighs were removed, weighed, then homogenised in 2 mL PBS using a Precellys bead beater and the homogenates individually quantitatively cultured on CLED agar to determine the bacterial burdens.
The data from the culture burdens were analysed using appropriate non-parametric statistical models (Kruskal-Wallis using Conover-Inman to make all pairwise comparisons between groups) with StatsDirect software v. 2.7.8., and compared to pre-treatment and vehicle controls.

[2] = biological target: Safetyscreen44 panel (Homo sapiens, UniProt P21728); conditions: D1 (h) (antagonist radioligand)
Chain of Safetyscreen44 panel (Homo sapiens, UniProt P21728) (P21728 whole entry): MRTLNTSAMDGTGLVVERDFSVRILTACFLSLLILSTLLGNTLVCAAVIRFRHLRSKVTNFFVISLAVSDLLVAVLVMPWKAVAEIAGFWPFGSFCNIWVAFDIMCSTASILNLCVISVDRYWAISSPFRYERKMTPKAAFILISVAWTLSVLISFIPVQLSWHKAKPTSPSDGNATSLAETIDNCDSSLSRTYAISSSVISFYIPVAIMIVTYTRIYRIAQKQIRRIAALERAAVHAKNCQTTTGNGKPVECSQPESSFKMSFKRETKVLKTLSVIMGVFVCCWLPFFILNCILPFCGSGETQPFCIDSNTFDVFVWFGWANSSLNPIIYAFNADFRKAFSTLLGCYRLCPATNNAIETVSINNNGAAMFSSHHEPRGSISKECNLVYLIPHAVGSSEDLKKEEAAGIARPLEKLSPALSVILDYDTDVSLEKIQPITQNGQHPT

[3] = test system: Safetyscreen44 panel
[4] = test system: Neisseria gonorrhoeae strains; type: cell-based
From the text: Untreated controls and blank wells were included.

C[C@H]1COc2c(N3CC[C@@H](Nc4ncccn4)C3)c(F)cc3c(=O)c(C(=O)O)cn1c23 [KSN-82-L22]
Bodyweight raw data, individual mouse ([1]; 20 mg/kg group, day 0 (day of infection)): 29.4 and 27.2 and 30.5 and 29.7
Bodyweight raw data, individual mouse ([1]; 20 mg/kg group, day 1 post infection): 29.3 and 29.5 and 27.5 and 31.3 and 31.0
Bodyweight raw data, individual mouse ([1]; 20 mg/kg group, day −1 post infection (before treatment)): 29.1 and 29.2 and 27.3 and 30.2 and 29.8
Bodyweight raw data, individual mouse ([1]; 20 mg/kg group, day −4 post infection (before treatment)): 28.7 and 30.2 and 26.9 and 29.8 and 29.7
decrease of thigh bacterial burden compared to vehicle group ([1]; 20 mg/kg/dose oral at 2 h, 18 h post infection): 5 log10 CFU/g and > 5 log10 CFU/g
Bodyweight raw data, individual mouse ([1]; 50 mg/kg group, day 0 (day of infection)): 28.2 and 27.8 and 29.3 and 26.6 and 25.6
Bodyweight raw data, individual mouse ([1]; 50 mg/kg group, day 1 post infection): 29 and 28.1 and 30.1 and 26.1 and 26.4
Bodyweight raw data, individual mouse ([1]; 50 mg/kg group, day −1 post infection (before treatment)): 27.9 and 29.5 and 29.1 and 26.5 and 26.8
Bodyweight raw data, individual mouse ([1]; 50 mg/kg group, day −4 post infection (before treatment)): 27.8 and 29.2 and 28.9 and 27.0 and 27.9
decrease of thigh bacterial burden compared to vehicle group ([1]; 50 mg/kg/dose oral at 2 h, 18 h post infection): > 5 log10 CFU/g
thigh bacterial burden, result in words ([1]; 20 and 50 mg/kg, 18 h post infection): significantly decreased bacterial burden
body weights following infection ([1]; infected neutropenic mice, treated groups): slightly increased
Statistic analysis of thigh burden, P versus ML-83-009 20 mg/kg ([1]; substance at 20 mg/kg): P < 0.0001
Statistic analysis of thigh burden, P versus ML-83-009 50 mg/kg ([1]; substance at 20 mg/kg): P = 0.0002
Statistic analysis of thigh burden, P versus Pre treatment ([1]; substance at 20 mg/kg): P = 0.0139
Statistic analysis of thigh burden, P versus Vehicle ([1]; substance at 20 mg/kg): P < 0.0001
Statistic analysis of thigh burden, P versus ML-83-009 20 mg/kg ([1]; substance at 50 mg/kg): P < 0.0001
Statistic analysis of thigh burden, P versus ML-83-009 50 mg/kg ([1]; substance at 50 mg/kg): P < 0.0001
Statistic analysis of thigh burden, P versus Pre treatment ([1]; substance at 50 mg/kg): P = 0.0026
Statistic analysis of thigh burden, P versus Vehicle ([1]; substance at 50 mg/kg): P < 0.0001
% inhibition [2]: −15.4033%
% inhibition ([3]; KV channel (antagonist radioligand)): −4.644%
% inhibition ([3]; alpha 2A (h) (antagonist radioligand)): 4.4791%
MIC ([4]; strain 2007NG046, resistance PEN-R CFM-R CPD-R CIP-R): 4 mg/L (≈ 9.4 µM)
MIC ([4]; strain 2008NG057, resistance PEN-R CFM-R CPD-R CIP-R): 2 mg/L (≈ 4.7 µM)
MIC ([4]; strain 2008NG097, resistance PEN-R CFM-R CPD-R CIP-R): 2 mg/L (≈ 4.7 µM)
MIC ([4]; strain 2009NG514, resistance PEN-R CPD-R CIP-R): 2 mg/L (≈ 4.7 µM)
MIC ([4]; strain 2010NG122, resistance PEN-R CFM-R CIP-R): 2 mg/L (≈ 4.7 µM)
MIC ([4]; strain ATCC 49226, resistance PEN-I TET-I): ≤0.03125 mg/L
MIC ([4]; strain ATCC 700825, resistance —): ≤0.03125 mg/L
MIC ([4]; strain BAA-1833, resistance PEN-I TET-I): ≤0.03125 mg/L
MIC ([4]; strain BAA-1838, resistance —): ≤0.03125 mg/L
MIC ([4]; strain CCUG 57595, resistance —): ≤0.03125 mg/L
MIC ([4]; strain CCUG 57596, resistance CIP-I PEN-I TET-R): 0.125 mg/L (≈ 0.294 µM)
MIC ([4]; strain CCUG 57597, resistance FEP-NS FOX-I CAZ-NS CIP-R OFX-R PEN-R TET-R): 2 mg/L (≈ 4.7 µM)
MIC ([4]; strain CCUG 57598, resistance FOX-R CAZ-NS CRO-NS CIP-R OFX-R PEN-R TET-R): 2 mg/L (≈ 4.7 µM)
MIC ([4]; strain CCUG 57599, resistance CIP-R OFX-R PEN-R TET-R): 0.5 mg/L (≈ 1.18 µM)
MIC ([4]; strain CCUG 57600, resistance CIP-R OFX-R PEN-R TET-R): 1 mg/L (≈ 2.35 µM)
MIC ([4]; strain CCUG 57601, resistance PEN-R TET-R): ≤0.03125 mg/L
MIC ([4]; strain CCUG 57602, resistance PEN-I TET-I): 0.0625 mg/L (≈ 0.147 µM)
MIC ([4]; strain FDA-CDC AR-BANK#0165, resistance CIP-R PEN-I TET-R): 2 mg/L (≈ 4.7 µM)
MIC ([4]; strain FDA-CDC AR-BANK#0166, resistance CIP-R PEN-I TET-R): 2 mg/L (≈ 4.7 µM)
MIC ([4]; strain FDA-CDC AR-BANK#0167, resistance CIP-S PEN-S TET-I): ≤0.03125 mg/L
MIC ([4]; strain FDA-CDC AR-BANK#0168, resistance CIP-R PEN-I TET-R): 1 mg/L (≈ 2.35 µM)
MIC ([4]; strain FDA-CDC AR-BANK#0169, resistance CIP-R PEN-I TET-R): 2 mg/L (≈ 4.7 µM)
MIC ([4]; strain FDA-CDC AR-BANK#0170, resistance CIP-R PEN-I TET-R): 2 mg/L (≈ 4.7 µM)
MIC ([4]; strain FDA-CDC AR-BANK#0171, resistance CIP-R PEN-I TET-R): 1 mg/L (≈ 2.35 µM)
MIC ([4]; strain FDA-CDC AR-BANK#0172, resistance CIP-R PEN-R TET-R): 1 mg/L (≈ 2.35 µM)
